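Compound exposure: 48 hours, 5 concentrations, 96-well plates. GI50: concentration for 50% inhibition of growth. TGI: total growth inhibition.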

Among the test systems are MCF7 breast; CCRF-CEM leukemia; SK-MEL-2 melanoma; MDA-MB-231 breast; HL-60(TB) leukemia; HCT-116 colon; UACC-257 melanoma; TK-10 renal; PC-3 prostate; UO-31 renal.
Holding throughout (experiment): growth of human tumour cells (NCI), 48 h

As to `CCCCCCCCCCCCSC1=C(Cl)C(=O)C(OC)=C(OC)C1=O`, the GI50 in the assay on MCF7 breast is 0.417 µM; in the assay with CCRF-CEM leukemia, 1.53 µM; in the assay on SK-MEL-2 melanoma it was 4.36 µM; in the assay on MDA-MB-231 breast, 1.86 µM; with HL-60(TB) leukemia it was 0.0502 µM; in the assay on HCT-116 colon it was 0.508 µM. Moreover, the GI50 in the assay on UACC-257 melanoma is 3.62 µM; in the assay on TK-10 renal, 2.24 µM; in the assay on PC-3 prostate, 1.18 µM; in the assay with UO-31 renal, 2.27 µM. Further, the TGI was 7.12 µM in the assay with MCF7 breast; > 100 µM in the assay with CCRF-CEM leukemia; 14.8 µM in the assay on SK-MEL-2 melanoma; 10.4 µM in the assay on MDA-MB-231 breast; 5.82 µM in the assay with HL-60(TB) leukemia; 11.9 µM in the assay with HCT-116 colon. The TGI was 27.6 µM in the assay with UACC-257 melanoma, 24.6 µM in the assay with TK-10 renal, 9.09 µM in the assay on PC-3 prostate and 11.5 µM in the assay on UO-31 renal.

For the origin of these results see PubChem BioAssay (NCI).
